B1: ibj1c.pk0002.f9 (protein)
chain: MKFLYGIILIALFLTVMIATHSEARCPNCFTTNPNAEADCKKCCGNRWGKCAGYQCVCPMK

Test system: Heliothis virescens larvae
Assay: Feeding bioassay of recombinant baculoviruses expressing the scorpion peptides on Heliothis virescens larvae
Format: in vivo
Conditions: four 5-day-old larvae fed 200 mg viral-contaminated diet; symptoms examined 4, 5, 6 and 7 days after fresh diet added
Excerpt: It has been shown that single amino acids residues are important for receptor binding and for biological activity of K-channel toxins (Sabatier et al. (1994) Int. J. Peptide Protein Res. 43:486-495). The cDNAs described herein were cloned into baculoviruses and used to test their activity against Lepidopteran.
The DNA encoding the peptides was amplified by performing PCR and adding a Bgl II restriction site at the 5′ end and an Eco RI site at the 3′ end to allow cloning into the baculovirus transfer vector pAcUW21 (BD Biosciences-PharMingen, San Diego, Calif.). After amplification in E. coli the presence of the appropriate fragments was confirmed by restriction enzyme analysis. Colonies containing the appropriate fragments were isolated, propagated, and plasmid DNA was prepared for lipofectin-mediated co-transfection into insect cells with linearized polyhedrin-negative AcNPV. Co-transfections were performed essentially as described in Example 7. Polyhedrin-positive recombinant viruses were isolated employing standard plaque purification protocols and were mixed with a plug of HV diet (www.Bio-Serv.com) and fed to Heliothis virescens larvae.
Depicted in Table 3 are the results from two independent experiments in which four 5-day-old larvae were fed 200 mg of viral-contaminated diet. The larvae were allowed to eat for 2 days or until the viral-contaminated diet was consumed, then fresh 1 g diet plugs were added to allow continued feeding.
With “ibj1c.pk006.h8: Buthotus judaicus scorpion potassium channel blocking toxin 15-1 homolog; mature toxin amino acids 23-58 of SEQ ID NO:16, expressed from recombinant baculovirus (GLIDVRCSASRECWEACRKVTGSGQGKCQNNQCRCY)” the “Activity of Scorpion Potassium Channel Modifiers on Heliothis virescens Larvae, Experiment 1” value (from here on “Activity … Experiment 1”) was “Slightly Active” and the “Activity of Scorpion Potassium Channel Modifiers on Heliothis virescens Larvae, Experiment 2” value (from here on “Activity … Experiment 2”) was “Active (scored as active if the larvae became irritated and had contractions and died)”.
For “ibj1c.pk009.i6: Buthotus judaicus scorpion kaliotoxin 2 precursor homolog; mature toxin amino acids 23-59 of SEQ ID NO:6, expressed from recombinant baculovirus (QVETNVKCTGGSCASTCKRVIGVAAGKCINGRCVCYP)”, the “Activity … Experiment 1” value was “Slightly Active” and the “Activity … Experiment 2” value was “Slightly Active”.
In the case of “ibj1c.pk007.c13: Buthotus judaicus scorpion leiurotoxin I homolog; mature toxin amino acids 38-70 of SEQ ID NO:12, expressed from recombinant baculovirus (AFCNLRRCQLICRESGLLGKCIGDRCECVPHGK)”, the “Activity … Experiment 1” value is reported as “Slightly Active” and the “Activity … Experiment 2” value is reported as “Slightly Active”.
With “ibj1c.pk005.e21: Buthotus judaicus scorpion leiuropeptide III homolog; mature toxin amino acids 31-59 of SEQ ID NO:10, expressed from recombinant baculovirus (VGCEDCPEHCSQQNARAKCENDKCVCEPK)” the “Activity … Experiment 1” value was “Slightly Active” and the “Activity … Experiment 2” value was “Active (scored as active if the larvae became irritated and had contractions and died)”.
In the case of “ibj1c.pk007.k8: Buthotus judaicus scorpion cobatoxin 1 homolog; mature toxin amino acids 22-58 of SEQ ID NO:2, expressed from recombinant baculovirus (NFKVEAAQCYSSDCRVKCAAMGFNSGKCINSKCKCYK)”, the “Activity … Experiment 1” value is reported as “Slightly Active” and the “Activity … Experiment 2” value is reported as “Slightly Active”.
For “ibj1c.pk006.i20: Buthotus judaicus scorpion kaliotoxin 2 precursor homolog; mature toxin amino acids 23-61 of SEQ ID NO:4, expressed from recombinant baculovirus (QYELDVTCMGGADNCVKPCYDKYGTTKTKCINDRCNCYP)”, the “Activity … Experiment 1” value was “Slightly Active” and the “Activity … Experiment 2” value was “Slightly Active”.
In the case of “ibj1c.pk005.n9: Buthotus judaicus scorpion potassium channel blocking toxin 15-1 homolog; mature toxin amino acids 23-58 of SEQ ID NO:18, expressed from recombinant baculovirus (DLIDVKCISSQECWIACKKVTGRFQGKCQNKQCRCY)”, the “Activity … Experiment 1” value is reported as “Slightly Active” and the “Activity … Experiment 2” value is reported as “Slightly Active”.
In the case of “ibj1c.pk008.d3: Buthotus judaicus scorpion leiuropeptide I homolog; mature toxin amino acids 29-56 of SEQ ID NO:8, expressed from recombinant baculovirus (VDCEECPFHCAGKNAIPTCDDGECNCNV)”, the “Activity … Experiment 1” value is reported as “Slightly Active” and the “Activity … Experiment 2” value is reported as “Slightly Active”.
With B1 the “Activity … Experiment 1” value was “Slightly Active” and the “Activity … Experiment 2” value was “Slightly Active”.

Test system: Ca+2-activated K-channels and voltage-dependent K-channel (K(v) 1.3)
Assay: not given
Conditions: Maxi-K, medium- and small-conductance Ca+2-activated K-channels and K(v) 1.3; cited from earlier work
In the case of charybdotoxin [ChTX], the “Potency of channel inhibition” value is given as “in the low nanomolar range”.

From patent US6740743B2, “Scorpian toxins” (E. I. du Pont de Nemours and Company, priority 1999, dated 2004)
